Format in all cases: cell-based
For one experiment, the target named is T1, SNAP-D1R (Homo sapiens, UniProt P21728).
T1 construct: expressed in transfected cells; host or cells: HEK293T
As to the kind of experiment: SNAP-D1R photoactivation, GIRK assay in HEK293T cells. Particulars: P-D1ago tethered to SNAP-tag fused to the N-terminus of D1R. The text has this:
To test the ability of P-D1ago to photo-activate D1R, it was attached directly to a version of D1R that has SNAP fused to its extracellular N-terminus, which is adjacent to the ligand binding site of the receptor. SNAP-D1R was co-expressed in HEK293T cells with the G protein-coupled inwardly rectifying potassium (GIRK) channel as an effector. […] P-D1ago was attached to the M, which was co-expressed in HEK293T cells with the native D1R and the GIRK channel. […] To optimize D1R photoactivation, the geometric positioning of P-D1ago was adjusted using variants of M with “lift” peptides between the SNAP-tag and transmembrane segment. Photoactivation increased with an M variant containing a rigid, α-helical EAAAK (SEQ ID NO: 13) peptide (MEAAAK (SEQ ID NO: 16); FIG. 2B, C, and E) and decreased as the lift peptide was further extended (FIGS. 11D-11F), presumably because P-D1ago “rises” too far from the cell surface.
FIGS. 10A-10C. […] (A) Schematic representation of P-D1ago tethered to a SNAP-tag fused directly to the extracellular N-terminus of D1R. (B) Representative trace of SNAP-D1R photoactivation by P-D1ago according to the GIRK assay. […] (C) Summary of SNAP-D1R photoactivation by P-D1ago relative to a saturating concentration of DA (10 µM). n = 5 cells.

Experiment [1] addresses T2, D1R (Homo sapiens, UniProt P21728).
T2 construct: expressed in transfected cells; host or cells: HEK293T (A1, A2); HEK293 (A26)
As to the kind of experiment: D1R-mediated cAMP accumulation assay (BRET sensor CAMYEL) in HEK293T cells. Conditions: FIGS. 9A-9H. The text has this: FIGS. 9A-9H. Functional properties of untethered P-D1ago. (A) Schematic representation of a D1R-mediated G protein-coupled inwardly rectifying potassium (GIRK) channel assay in HEK293T cells. Agonist-induced receptor activation results in the recruitment of a heterotrimeric G protein containing the chimeric Gα subunit (Gαis) followed by the release of Gβγ, which activates GIRK channels and enhances inward-current. […]. (C) Representative traces of the effect of untethered P-D1ago on D1R in the absence of the membrane-anchor (M) according to the GIRK assay. […] (D) Summary of the functional effect of untethered P-D1ago on D1R in the GIRK assay. n = 4-5 cells per condition. (E) Schematic representation of a highly sensitive D1R-mediated cAMP accumulation assay in HEK293T cells. Agonist-induced D1R activation results in Gs/olfrecruitment followed by the binding of its Gα subunit to adenylate cyclase (AC), which enhances the conversion of ATP to cAMP. cAMP binds the bioluminescence resonance energy transfer 1 (BRET′)-based cAMP sensor CAMYEL^87, resulting in a conformational change in its Epac domain that increases the distance and decreases BRET^1 between the donor Renilla luciferase (Rluc) and the acceptor YFP. […]
On the technique in general: Changes in cAMP serve as a functional read-out for many G protein-coupled receptors.

The target in experiment [2] is T2, D1R. As to the kind of experiment: D1R-mediated GIRK channel activation assay in HEK293T cells (whole-cell electrophysiology). On the procedure:
All constructs were cloned into mammalian expression vectors. For the receptor mediated-GIRK activation assay, HEK293T cells were seeded onto 18 mm coverslips and transiently transfected overnight with Lipofectamine 2000 and the following constructs: a receptor, a variant of the membrane-anchor (M; 0.7 µg), GIRK1(F137S) (0.7 µg), and tdTomato (0.2 µg). […] D1R, D5R, or opto-D1R were cotransfected with Gαis13 (0.35 µg), D3R with GαoA (0.7 µg), and M1R or mGluR1 with Gαiq5. Transfected cells were used for electrophysiology, imaging, or flow cytometry experiments.
HEK293T cells were sparsely seeded and maintained in DMEM (Invitrogen) with 10% fetal bovine serum on poly-L-lysine-coated coverslips at 37° C. and 5% CO2. HEK293T cells were voltage clamped in whole-cell configuration 16-48 hours after transfection. […] GluK2 electrophysiology was performed in the presence of 0.3 mg/mL concanavalin A to prevent desensitization. […] Cells were voltage clamped to -60 or -80 mV using an Axopatch 200A (Molecular Devices) amplifier.
For all experiments, compounds were applied using a gravity-driven perfusion system and illumination was applied to the entire field of view using a Polychrome V monochromator (TILL Photonics) through a 20x objective (maximum 0.05 mW/mm^2 at 370 nm and 0.5 mW/mm^2 at 460 nm or 473 nm) or a DG4 (Sutter) through a 20x objective (maximum 0.06 mW/mm^2 at 370 nm and 0.6 mW/mm^2 at 445 nm). pClamp software was used for both data acquisition and control of illumination.
The selection criteria for electrophysiological experiments are that a cell (i) expresses the fluorescent protein transfection marker, and (ii) responds to agonist, indicating the presence of either receptor and GIRK or an LGIC. Cells were not excluded unless the recording was of poor quality (e.g., unstable baseline).
Data were analyzed using GraphPad Prism (GraphPad), Clampfit (Axon instruments), Origin (OriginLab), MATLAB, or ImageJ software. For dose-response curves, data were normalized to vehicle (0%) and DA (100%) and nonlinear regression analysis was performed using the sigmoidal dose-response function in GraphPad Prism. Statistical analyses were performed using GraphPad Prism. All values reported are mean ± S.E.M.
FIGS. 9A-9H. Functional properties of untethered P-D1ago. (A) Schematic representation of a D1R-mediated G protein-coupled inwardly rectifying potassium (GIRK) channel assay in HEK293T cells. Agonist-induced receptor activation results in the recruitment of a heterotrimeric G protein containing the chimeric Gα subunit (Gαis) followed by the release of Gβγ, which activates GIRK channels and enhances inward-current. […] (E) Schematic representation of a highly sensitive D1R-mediated cAMP accumulation assay in HEK293T cells. Agonist-induced D1R activation results in Gs/olfrecruitment followed by the binding of its Gα subunit to adenylate cyclase (AC), which enhances the conversion of ATP to cAMP. cAMP binds the bioluminescence resonance energy transfer 1 (BRET′)-based cAMP sensor CAMYEL^87, resulting in a conformational change in its Epac domain that increases the distance and decreases BRET^1 between the donor Renilla luciferase (Rluc) and the acceptor YFP. […] Optimization and characterization of the D1R MP

SMILES strings stand for the structures.

T2 sequence (P21728 whole entry): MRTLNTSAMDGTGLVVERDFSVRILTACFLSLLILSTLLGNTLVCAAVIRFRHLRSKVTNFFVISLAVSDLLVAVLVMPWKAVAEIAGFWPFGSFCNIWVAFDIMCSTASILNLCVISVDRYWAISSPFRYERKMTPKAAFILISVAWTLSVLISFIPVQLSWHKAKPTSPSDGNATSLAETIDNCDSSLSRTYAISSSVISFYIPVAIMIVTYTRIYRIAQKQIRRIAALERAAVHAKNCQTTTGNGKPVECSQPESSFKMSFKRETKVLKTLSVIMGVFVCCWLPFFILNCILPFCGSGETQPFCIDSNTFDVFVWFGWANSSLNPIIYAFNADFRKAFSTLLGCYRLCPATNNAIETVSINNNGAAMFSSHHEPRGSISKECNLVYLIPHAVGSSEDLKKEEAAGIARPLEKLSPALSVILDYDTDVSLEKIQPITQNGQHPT
T1 sequence (P21728 with tags, fused parts or gaps): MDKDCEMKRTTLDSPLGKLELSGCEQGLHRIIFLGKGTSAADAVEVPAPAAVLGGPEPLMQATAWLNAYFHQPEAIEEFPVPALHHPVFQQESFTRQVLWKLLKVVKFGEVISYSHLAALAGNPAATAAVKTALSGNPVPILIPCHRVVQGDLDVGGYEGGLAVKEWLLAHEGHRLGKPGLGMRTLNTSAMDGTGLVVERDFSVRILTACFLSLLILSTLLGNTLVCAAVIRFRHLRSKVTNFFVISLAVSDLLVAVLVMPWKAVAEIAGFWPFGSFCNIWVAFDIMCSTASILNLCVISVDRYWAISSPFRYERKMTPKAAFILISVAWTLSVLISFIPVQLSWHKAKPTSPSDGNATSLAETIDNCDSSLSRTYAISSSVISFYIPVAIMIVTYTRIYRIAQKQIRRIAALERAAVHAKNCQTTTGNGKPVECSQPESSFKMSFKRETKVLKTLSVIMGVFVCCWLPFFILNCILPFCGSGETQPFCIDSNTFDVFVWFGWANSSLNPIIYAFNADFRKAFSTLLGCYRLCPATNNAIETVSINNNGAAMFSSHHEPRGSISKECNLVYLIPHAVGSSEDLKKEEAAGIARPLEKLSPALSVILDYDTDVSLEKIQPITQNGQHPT

Take `CCCN(CCc1ccc(N=Nc2ccc(NC(=O)CNC(=O)CCOCCOCCOCCOCCOCCOCCOCCOCCOCCOCCOCCOCCn3cc(CCC(=O)NCc4ccc(COc5nc(N)nc6nc[nH]c56)cc4)nn3)cc2)cc1)C1CCc2c(O)cccc2C1` (stereo not shown) [P-D1ago, Benzylguanine-azobenzene-PPHT]: the SNAP-D1R photoactivation result at SNAP-D1R is “photoactivates D1R in response to blue light and is deactivated with UV light”. For the same compound, the “agonist profile at D1R in untethered form” value at D1R [1] is “low potency full agonist”. Also, on D1R [2] (absence of the membrane-anchor (M), 1 µM or 10 µM, trans (blue light) or cis (UV light)), the “effect of untethered P-D1ago on D1R in the GIRK assay” value is “Neither 1 µM or 10 µM P-D1ago, concentrations that fully label the M (FIG. 8D), have any effect on the receptor”. Besides, the “D1R activation by P-D1ago tethered to MEAAAK” value on D1R [2] (tethered to MEAAAK (SEQ ID NO:16), blue light) is “only partially activates D1R”. At D1R [2] (tethered to MEAAAK, 100 nM and 1 µM DA), the “D1R activation in the presence of sub-saturating DA” value is recorded as “further activated D1R”. For the same compound, the “effect on the ability of DA to activate D1R” value at D1R [2] (tethered to MEAAAK, saturating DA (10 µM)) is reported as “did not diminish the ability of DA to fully activate D1R”. Further, on D1R [2] (tethered to the M, relative to a saturating concentration of DA), the “photoactivation of D1R by P-D1ago tethered to the M” value was “partially photoactivated with blue light (460 nm) and is deactivated with UV light (370 nm)”.

These data come from US20230173090A1, “COMPOSITIONS AND METHODS FOR MODULATING DOPAMINE RECEPTOR ACTIVITY” (The Regents of the University of California, priority 2020, published 2023).
